Results published in patent publication US20100267636A1, “USE OF CYTOCHROME P450-METABOLIZED DRUGS AND GRF MOLECULES IN COMBINATION THERAPY” (THERATECHNOLOGIES INC., priority 2009, published 2010).
One block for each compound: values may come before it.

Tests used:
clinical = format: in vivo; conditions: human; for AUC(0-inf) / AUC(0-t) / Cmax / Tmax / half-life: both sexes, 80 mg
Experimental: […] […] N=58 healthy adult (male and female) subjects were enrolled. Dosing occurred in two groups. […] PK/statistics: PK parameters were calculated using standard noncompartmental approaches. […] The final ANOVA models included group, sequence, treatment, and period nested within group as fixed effects and subject nested within group-by-sequence as a random effect. The treatment-by-group term was excluded from the models for the groups combined, to be conservative.

CYP3A = test: Impact of TH9507 on CYP3A activity (simvastatin drug interaction studies); format: in vivo, human; conditions: 2 mg TH9507 days 1 to 7, 80 mg simvastatin as CYP3A substrate on Day 6
Text: The final ANOVA models included group, sequence, treatment, and period nested within group as fixed effects and subject nested within group-by-sequence as a random effect. The treatment-by-group term was excluded from the models for the groups combined, to be conservative.

[1] = Plasma PK of TH9507 in simvastatin studies (ELISA); format: in vivo, human
Experimental: 2 ml of TH9507 (1 mg/ml injectable solution) was administered by subcutaneous injection under fasting conditions once daily for 7 consecutive days (daily dose of 2 mg TH9507).
N=58 healthy adult (male and female) subjects were enrolled. Dosing occurred in two groups.
PK/statistics: PK parameters were calculated using standard noncompartmental approaches.

[2] = both sexes, human, plasma, sc, 2 mg

AUC(0-inf) (clinical; in vivo, po): 46.8 ng·h/mL
AUC(0-t) (clinical; in vivo, po): 43.4 ng·h/mL
Cmax (clinical; in vivo, po): 4.33 ng/mL
Tmax (clinical; in vivo, po): 4.5 h
half-life (clinical; in vivo, po): 8.07 h
AUC(0-inf) (clinical; in vivo, sc): 39.9 ng·h/mL
AUC(0-t) (clinical; in vivo, sc): 37.5 ng·h/mL
Cmax (clinical; in vivo, sc): 4.28 ng/mL
Tmax (clinical; in vivo, sc): 4.5 h
half-life (clinical; in vivo, sc): 6.91 h
AUC0-inf, A/B Ratio (%) (clinical; both, in vivo): 85.2%
AUC0-t, A/B Ratio (%) (clinical; both, in vivo): 86.3%
Cmax, A/B Ratio (%) (clinical; both, in vivo): 99.0%
SMILES: CCC(C)(C)C(=O)O[C@H]1C[C@@H](C)C=C2C=C[C@H](C)[C@H](CC[C@@H](O)C[C@@H](O)CC(=O)O)[C@H]21 [Simvastatin Acid, simvastatin acid]

half-life (clinical; plasma, po, read-out: T1/2, Treatment B (converted)): 8.56 h
half-life (clinical; plasma, sc, read-out: T1/2, Treatment A (converted)): 7.62 h
SMILES: CCC(C)(C)C(=O)O[C@H]1C[C@@H](C)C=C2C=C[C@H](C)[C@H](CC[C@@H]3C[C@@H](O)CC(=O)O3)[C@H]21 [Simvastatin, (1S,3R,7S,8S,8aR)-8-{2-[(2R,4R)-4-hydroxy-6-oxooxan-2-yl]ethyl}-3,7-dimethyl-1,2,3,7,8,8a-hexahydronaphthalen-1-yl 2,2-dimethylbutanoate, reference compound]

SMILES: CC/C=C/CC(=O)N[C@@H](Cc1ccc(O)cc1)C(=O)N[C@@H](C)C(=O)N[C@@H](CC(=O)O)C(=O)N[C@@H](C)C(=O)N[C@H](C(=O)N[C@@H](Cc1ccccc1)C(=O)N[C@H](C(=O)N[C@@H](CC(N)=O)C(=O)N[C@@H](CO)C(=O)N[C@@H](Cc1ccc(O)cc1)C(=O)N[C@@H](CCCNC(=N)N)C(=O)N[C@@H](CCCCN)C(=O)N[C@H](C(=O)N[C@@H](CC(C)C)C(=O)NCC(=O)N[C@@H](CCC(N)=O)C(=O)N[C@@H](CC(C)C)C(=O)N[C@@H](CO)C(=O)N[C@@H](C)C(=O)N[C@@H](CCCNC(=N)N)C(=O)N[C@@H](CCCCN)C(=O)N[C@@H](CC(C)C)C(=O)N[C@@H](CC(C)C)C(=O)N[C@@H](CCC(N)=O)C(=O)N[C@@H](CC(=O)O)C(=O)N[C@H](C(=O)N[C@@H](CCSC)C(=O)N[C@@H](CO)C(=O)N[C@@H](CCCNC(=N)N)C(=O)N[C@@H](CCC(N)=O)C(=O)N[C@@H](CCC(N)=O)C(=O)NCC(=O)N[C@@H](CCC(=O)O)C(=O)N[C@@H](CO)C(=O)N[C@@H](CC(N)=O)C(=O)N[C@@H](CCC(N)=O)C(=O)N[C@@H](CCC(=O)O)C(=O)N[C@@H](CCCNC(=N)N)C(=O)NCC(=O)N[C@@H](C)C(=O)N[C@@H](CCCNC(=N)N)C(=O)N[C@@H](C)C(=O)N[C@@H](CCCNC(=N)N)C(=O)N[C@@H](CC(C)C)C(N)=O)[C@@H](C)CC)C(C)C)[C@@H](C)O)[C@@H](C)CC [TH9507, (hexenoyl trans-3)hGRF(1-44)NH2]
impact on CYP3A activity (CYP3A): not significant
Tmax ([1]; TH9507 2 mg s.c. once daily, day 6 samples, simvastatin studies, median): 9 min
AUC(0-inf) [1, 2]: 1.05 ng·h/mL
AUC(0-t) [1, 2]: 0.888 ng·h/mL
Cmax [1, 2]: 3.36 ng/mL
half-life [1, 2]: 8.4 min
